Assay results from article PMC7571065, “Design, Synthesis, In Vitro and In Silico Studies of New Thiazolylhydrazine-Piperazine Derivatives as Selective MAO-A Inhibitors” (Molecules, 2020).
Entries after “also recorded” stand apart in the source; their conditions may differ. Read-outs that look alike come from different tables or passages of the source.

How the values were obtained:
MAO-A [1] = biological target: T1, MAO-A (Homo sapiens, UniProt P21397); experiment: In vitro fluorometric MAO-A inhibition assay (Ampliflu Red, tyramine); assay type: biochemical; conditions: for inhibition at 0.001 µM / inhibition at 0.01 µM / inhibition at 0.1 µM / inhibition at 1 µM / inhibition at 10 µM: read-out: MAO-A % Inhibition; for IC50: mean ± SD, read-out: IC50 against MAO-A
T1 construct: purchased Sigma-Aldrich (Steinheim, Germany)
T1 sequence (P21397 1-527): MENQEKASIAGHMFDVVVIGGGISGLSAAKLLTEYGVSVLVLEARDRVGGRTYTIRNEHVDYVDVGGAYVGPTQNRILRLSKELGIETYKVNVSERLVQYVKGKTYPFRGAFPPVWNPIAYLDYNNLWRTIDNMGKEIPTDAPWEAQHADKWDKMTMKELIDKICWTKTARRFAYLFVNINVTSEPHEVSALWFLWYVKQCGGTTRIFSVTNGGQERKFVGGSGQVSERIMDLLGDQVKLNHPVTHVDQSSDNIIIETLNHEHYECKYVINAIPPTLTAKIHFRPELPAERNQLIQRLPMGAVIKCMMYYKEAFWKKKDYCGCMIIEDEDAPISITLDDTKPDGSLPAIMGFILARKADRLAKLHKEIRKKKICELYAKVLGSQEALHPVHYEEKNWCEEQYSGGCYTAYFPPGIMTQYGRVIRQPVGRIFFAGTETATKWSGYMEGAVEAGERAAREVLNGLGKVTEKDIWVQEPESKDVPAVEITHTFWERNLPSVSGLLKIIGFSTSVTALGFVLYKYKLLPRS

recombinant MAO-B = biological target: T2, recombinant MAO-B (Homo sapiens, UniProt P27338); experiment: In vitro fluorometric MAO-B inhibition assay (Ampliflu Red, tyramine); assay type: biochemical
T2 construct: purchased Sigma-Aldrich (Steinheim, Germany)
T2 sequence (P27338 1-520): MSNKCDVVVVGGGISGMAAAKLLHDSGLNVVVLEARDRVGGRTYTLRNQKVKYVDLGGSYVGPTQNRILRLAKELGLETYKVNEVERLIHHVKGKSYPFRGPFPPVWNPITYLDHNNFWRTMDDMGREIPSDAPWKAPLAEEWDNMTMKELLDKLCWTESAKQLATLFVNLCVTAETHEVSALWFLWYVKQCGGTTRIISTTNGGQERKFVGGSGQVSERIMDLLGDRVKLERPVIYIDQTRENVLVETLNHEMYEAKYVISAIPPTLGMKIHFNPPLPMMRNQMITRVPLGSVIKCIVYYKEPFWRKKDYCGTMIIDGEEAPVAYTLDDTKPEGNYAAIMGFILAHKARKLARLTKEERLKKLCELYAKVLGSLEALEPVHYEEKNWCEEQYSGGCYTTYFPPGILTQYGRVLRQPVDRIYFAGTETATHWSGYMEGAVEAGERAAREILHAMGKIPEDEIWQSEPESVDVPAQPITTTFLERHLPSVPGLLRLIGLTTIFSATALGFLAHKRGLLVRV

MAO-A [2] = biological target: T1, MAO-A; experiment: Enzyme kinetic studies (Lineweaver-Burk and secondary plot); assay type: biochemical
Description: The same materials were used in the MAO inhibition assay. […] All processes were evaluated in quadruplicate. The results were analyzed by means of Microsoft Office Excel 2013 as Lineweaver-Burk diagrams. […] of the Lineweaver-Burk plots were replotted versus the inhibitor concentration, and the Ki values were determined from the x-axis intercept as Ki.
The MAO-A inhibition mechanism was defined by conducting enzyme kinetics experiments utilizing a protocol close to that of the MAO inhibition assay. […] To estimate the type of inhibition of this compound, linear Lineweaver-Burk graphs were used. The velocity curves of the substrates were reported in the absence and presence of compound 3e. In each case, the initial velocity measurements were collected at various concentrations of substrates (tyramine) varying from 20 μM to 0.625 μM.
According to the Lineweaver-Burk plots, the type of inhibition consists of two general classes: reversible and irreversible. Mixed-type, uncompetitive, competitive and noncompetitive inhibition types are included in the reversible inhibition. […] Competitive inhibition is seen if the lines intersect on the y-axis, and the slopes and x-intercepts are different. On the contrary, non-competitive inhibition has the opposite result: the plotted lines have the same x-intercept but there are diverse slopes and y-intercepts.

Cytotoxicity MTT assay = assay type: cell-based; conditions: mouse, NIH/3T3 mouse embryonic fibroblast cells, tested 1 mM to 0.000316 mM, read-out: IC50 NIH/3T3 Cell Line
Description: The NIH/3T3 mouse embryonic fibroblast cell line (ATCC® CRL-1658 ™, London, UK) was used for cytotoxicity assays. The incubation period of NIH/3T3 cells was based on the supplier’s recommendation. NIH/3T3 cells were seeded at 1 × 10^4 cells into each well of 96-well plates. MTT assay was carried out in accordance with the standards previously described manner.

Structure (SMILES) | inhibition at 1000 µM (MAO-A [1]; 10^−3 M) | inhibition at 100 µM (MAO-A [1]; 10^−4 M) | inhibition at 1000 µM (recombinant MAO-B; 10^−3 M) | inhibition at 100 µM (recombinant MAO-B; 10^−4 M) | melting point | other results
C#CCN(C)CCCOc1ccc(Cl)cc1Cl [Clorgiline, clorgiline, reference compound] |  |  |  |  |  | inhibition at 0.001 µM (MAO-A [1]): 22.5 ± 0.736%; inhibition at 0.01 µM (MAO-A [1]): 34.2 ± 0.841%; inhibition at 0.1 µM (MAO-A [1]): 65.2 ± 0.997%; inhibition at 1 µM (MAO-A [1]): 78.5 ± 1.02%; inhibition at 10 µM (MAO-A [1]): 87.6 ± 1.46%
CN1CCN(c2ccc(C=NNc3nc(-c4ccccc4)cs3)cc2)CC1 [Compound 3a, 2-{2-[4-(4-Methylpiperazin-1-yl)benzylidene]hydrazinyl}-4-phenylthiazole] | 68.1 ± 1.03% | 34.3 ± 0.851% | 32.3 ± 0.985% | 25 ± 0.721% | 254 to 255 °C | 
Cc1ccc(-c2csc(NN=Cc3ccc(N4CCN(C)CC4)cc3)n2)cc1 [Compound 3b, 2-{2-[4-(4-Methylpiperazin-1-yl)benzylidene]hydrazinyl}-4-(4-methylphenyl)thiazole] | 71 ± 1.11% | 31.5 ± 0.732% | 34.6 ± 0.886% | 27.6 ± 0.649% | 252 to 254 °C | 
COc1ccc(-c2csc(NN=Cc3ccc(N4CCN(C)CC4)cc3)n2)cc1 [Compound 3c, 2-{2-[4-(4-Methylpiperazin-1-yl)benzylidene]hydrazinyl}-4-(4-methoxyphenyl)thiazole] | 92.1 ± 2.22% | 87.7 ± 1.87% | 30.3 ± 0.812% | 21.5 ± 0.879% | 226 to 228 °C | inhibition at 10 µM (MAO-A [1]; 10^−5 M): 75.4 ± 1.43%; inhibition at 1 µM (MAO-A [1]; 10^−6 M): 71 ± 1.09%; inhibition at 0.1 µM (MAO-A [1]; 10^−7 M): 48.3 ± 0.869%; inhibition at 0.01 µM (MAO-A [1]; 10^−8 M): 30.9 ± 0.711%; inhibition at 0.001 µM (MAO-A [1]; 10^−9 M): 21.8 ± 0.638%; IC50 (MAO-A [1]): 0.188 ± 0.008 µM
CN1CCN(c2ccc(C=NNc3nc(-c4ccc(C#N)cc4)cs3)cc2)CC1 [Compound 3d, 2-{2-[4-(4-Methylpiperazin-1-yl)benzylidene]hydrazinyl}-4-(4-cyanophenyl)thiazole] | 90.2 ± 2.04% | 84.4 ± 1.81% | 36.6 ± 0.903% | 26 ± 0.836% | 234 to 235 °C | inhibition at 10 µM (MAO-A [1]; 10^−5 M): 81.1 ± 1.94%; inhibition at 1 µM (MAO-A [1]; 10^−6 M): 79 ± 1.25%; inhibition at 0.1 µM (MAO-A [1]; 10^−7 M): 49.6 ± 0.811%; inhibition at 0.01 µM (MAO-A [1]; 10^−8 M): 30.6 ± 0.699%; inhibition at 0.001 µM (MAO-A [1]; 10^−9 M): 18.1 ± 0.593%; IC50 (MAO-A [1]): 0.117 ± 0.004 µM
CN1CCN(c2ccc(C=NNc3nc(-c4ccc([N+](=O)[O-])cc4)cs3)cc2)CC1 [Compound 3e, 2-{2-[4-(4-Methylpiperazin-1-yl)benzylidene]hydrazinyl}-4-(4-nitrophenyl)thiazole] | 95.3 ± 1.9% | 90.8 ± 1.73% | 39.1 ± 0.81% | 28.2 ± 0.791% |  | inhibition type (MAO-A [2]; Lineweaver-Burk plots): competitive and reversible; also recorded: reversible and competitive; Ki (MAO-A [2]; secondary plot, substrate tyramine, read-out: Ki (steady-state inhibition constant)): 0.011 µM; IC50 (Cytotoxicity MTT assay): > 1000 µM; inhibition at 10 µM (MAO-A [1]; 10^−5 M): 85 ± 1.03%; inhibition at 1 µM (MAO-A [1]; 10^−6 M): 82.4 ± 1.39%; inhibition at 0.1 µM (MAO-A [1]; 10^−7 M): 63.9 ± 0.893%; inhibition at 0.01 µM (MAO-A [1]; 10^−8 M): 42.6 ± 0.835%; inhibition at 0.001 µM (MAO-A [1]; 10^−9 M): 23 ± 0.715%; IC50 (MAO-A [1]): 0.057 ± 0.002 µM
CN1CCN(c2ccc(C=NNc3nc(-c4ccc(F)cc4)cs3)cc2)CC1 [Compound 3f, 2-{2-[4-(4-Methylpiperazin-1-yl)benzylidene]hydrazinyl}-4-(4-fluorophenyl)thiazole] | 75.9 ± 1.24% | 40.7 ± 0.98% | 30.7 ± 0.912% | 24.7 ± 0.854% | 247 to 249 °C | 
CN1CCN(c2ccc(C=NNc3nc(-c4ccc(Cl)cc4)cs3)cc2)CC1 [Compound 3g, 2-{2-[4-(4-Methylpiperazin-1-yl)benzylidene]hydrazinyl}-4-(4-chlorophenyl)thiazole] | 73.7 ± 1.11% | 33.5 ± 0.833% | 31.2 ± 0.789% | 24 ± 0.623% | 249 to 250 °C | 
CN1CCN(c2ccc(C=NNc3nc(-c4ccc(Br)cc4)cs3)cc2)CC1 [Compound 3h, 2-{2-[4-(4-Methylpiperazin-1-yl)benzylidene]hydrazinyl}-4-(4-bromophenyl)thiazole] | 70.8 ± 1.32% | 37.9 ± 0.796% | 34.4 ± 0.824% | 22.1 ± 0.796% | 253 to 255 °C | 
CN1CCN(c2ccc(C=NNc3nc(-c4ccc(-c5ccccc5)cc4)cs3)cc2)CC1 [Compound 3i, 2-{2-[4-(4-Methylpiperazin-1-yl)benzylidene]hydrazinyl}-4-([1,1’-biphenyl]-4-yl)thiazole] | 66.2 ± 0.972% | 41.5 ± 0.87% | 30.6 ± 0.836% | 21.5 ± 0.809% | 275 to 276 °C | 
Cc1ccc(-c2csc(NN=Cc3ccc(N4CCN(C)CC4)cc3)n2)c(C)c1 [Compound 3j, 2-{2-[4-(4-Methylpiperazin-1-yl)benzylidene]hydrazinyl}-4-(2,4-dimethylphenyl)thiazole] | 72.3 ± 1.03% | 38.1 ± 0.798% | 28.1 ± 0.901% | 20 ± 0.792% | 238 to 240 °C | 
CN1CCN(c2ccc(C=NNc3nc(-c4ccc(F)cc4F)cs3)cc2)CC1 [Compound 3k, 2-{2-[4-(4-Methylpiperazin-1-yl)benzylidene]hydrazinyl}-4-(2,4-difluorophenyl)thiazole] | 80 ± 1.3% | 35.1 ± 0.833% | 29.6 ± 0.782% | 23.2 ± 0.876% | 250 to 251 °C | 
CN1CCN(c2ccc(C=NNc3nc(-c4ccc(Cl)cc4Cl)cs3)cc2)CC1 [Compound 3l, 2-{2-[4-(4-Methylpiperazin-1-yl)benzylidene]hydrazinyl}-4-(2,4-chlorophenyl)thiazole] |  |  |  |  |  | MAO-A % Inhibition (MAO-A [1]; 10^−3 M): 73.521 ± 1.180%; MAO-A % Inhibition (MAO-A [1]; 10^−4 M): 40.578 ± 0.914%; MAO-B % Inhibition (recombinant MAO-B; 10^−3 M): 33.667 ± 0.991%; MAO-B % Inhibition (recombinant MAO-B; 10^−4 M): 21.373 ± 0.769%
